In article PMC8899577, “Targeting the anti-apoptotic Bcl-2 family proteins: machine learning virtual screening and biological evaluation of new small molecules” (Theranostics, 2022):

What was measured:
HL60 cells = assay: Cell viability by CellTiterGlo, HL60; format: cell-based; details: Homo sapiens, HL-60; 24 h, 5 to 50 µM
Experimental: (§1) The effect of compounds on cell viability was performed by measuring 3-[4,5-dimethylthiazol-2-yl]-2,5-diphenyltetrazolium bromide inner salt (MTT, Sigma-Aldrich) dye absorbance (solid tumor cells) or by quantization of ATP present in metabolically active cells using CellTiter-Glo® Luminescent (Promega, Fitchburg, Wisconsin, USA) (hematologic cells) following manifacturer's protocol. To evaluate the cell colony-forming ability, cell suspension from different samples was seeded into 60-mm Petri dishes. After 10 days, colonies were stained with 2% methylene blue in 95% ethanol and counted (1 colony > 50 cells). The surviving fractions were calculated as the ratio of absolute survival of the treated sample/survival of DMSO-treated control sample.
Figure 1 Cytotoxic screening of putative inhibitors of Bcl-2 anti-apoptotic proteins. (A) Flow cytometric quantification of propidium iodide exclusion assay in HL60 cells treated with the 49 putative Bcl-2 family inhibitors (50 μM, 72 h). (B) Analysis of cell viability by CellTiterGlo assay in HL60 cells treated for 24 h with concentrations ranging from 5 to 50 μM of the indicated compounds. (C-D) Analysis of cell viability by MTT assay in (C) M14 and (D) Sbcl2 melanoma cell lines treated for 72 h with concentrations ranging from 5 to 50 μM of the indicated compounds. […]

U937 cells = assay: Western blot of PARP1 cleavage, U937; format: cell-based, Human; details: 20 µM for 24 h
Experimental: (§2) Western blot analyses of total protein extracts were performed as previously described. Immunodetection was performed using antibodies directed to poly (ADP-ribose) polymerase (PARP; BD Biosciences San Diego, CA, USA), LC3B (Cell Signaling Technology, Danvers, MA), HSP72/73 (Calbiochem, EMD Biosciences, La Jolla, CA), Bcl-2 (SC-509, Santa Cruz Biotechnology Inc, Dallas, TX, USA), Bcl-xL (SC-271121, Santa Cruz Biotechnology Inc), Mcl-1 (SC-12756, Santa Cruz Biotechnology Inc) α-tubulin (Santa Cruz Biotechnology Inc) actin (Sigma-Aldrich, St. Louis, Missouri, USA). Anti-rabbit or anti-mouse immunoglobulin G-horseradish peroxidase-conjugated antibodies (Amersham Biosciences, Freiburg, Germany) were used as secondary antibody. Images were acquired by Image Lab Software (Bio-Rad, Hercules, CA, USA), using a ChemiDoc System instrument (Bio-Rad). […]
(§3) Figure 5 Analysis of apoptosis induction by IS20 and IS21 in leukemia, melanoma and NSCLC cells. […] (G) Flow cytometric quantification of cells in the subG1 peak of cell cycle distribution by propidium iodide staining in HL60 cell line treated with IS20 or IS21 (20 μM for 24 h) and in M14, H1299 and MDA-MB-231 cell lines treated with IS20 or IS21 (20 μM for 72 h). Data are reported as mean ± SD of three independent experiments. p-values were calculated between control (Ctrl) and treated cells, * p < 0.05. […]

M14 cells [1] = assay: Western blot of PARP1 cleavage, M14; format: cell-based, Human; details: 72 h
Experimental: (§4) Western blot analyses of total protein extracts were performed as previously described. Immunodetection was performed using antibodies directed to poly (ADP-ribose) polymerase (PARP; BD Biosciences San Diego, CA, USA), LC3B (Cell Signaling Technology, Danvers, MA), HSP72/73 (Calbiochem, EMD Biosciences, La Jolla, CA), Bcl-2 (SC-509, Santa Cruz Biotechnology Inc, Dallas, TX, USA), Bcl-xL (SC-271121, Santa Cruz Biotechnology Inc), Mcl-1 (SC-12756, Santa Cruz Biotechnology Inc) α-tubulin (Santa Cruz Biotechnology Inc) actin (Sigma-Aldrich, St. Louis, Missouri, USA). Anti-rabbit or anti-mouse immunoglobulin G-horseradish peroxidase-conjugated antibodies (Amersham Biosciences, Freiburg, Germany) were used as secondary antibody. Images were acquired by Image Lab Software (Bio-Rad, Hercules, CA, USA), using a ChemiDoc System instrument (Bio-Rad). The densitometric evaluation was performed using Image J software and normalized with relative controls.
Figure 5 Analysis of apoptosis induction by IS20 and IS21 in leukemia, melanoma and NSCLC cells. […] (A-F) Reported images are representative of two independent experiments with similar results. HSP72/73 or α-Tubulin are shown as loading and transferring control. (G) Flow cytometric quantification of cells in the subG1 peak of cell cycle distribution by propidium iodide staining in HL60 cell line treated with IS20 or IS21 (20 μM for 24 h) and in M14, H1299 and MDA-MB-231 cell lines treated with IS20 or IS21 (20 μM for 72 h). Data are reported as mean ± SD of three independent experiments. p-values were calculated between control (Ctrl) and treated cells, * p < 0.05. (H) Flow cytometric quantification of cells in the subG1 peak by propidium iodide staining in M14 and H1299 cell lines treated with IS20 or IS21 (20 μM, 72 h) in presence or absence of the pan caspase inhibitor z-VAD (50 μM). p-values were calculated between treated control (Ctrl) cells, # p < 0.01, ## p < 0.001 or between cells treated with IS20 or IS21 alone or in combination with z-VAD, * p < 0.05, ** p < 0.005. (G-H) Data are reported as mean of two (H) or three (G) experiments ± SD.

H1299 cells = assay: Western blot of LC3B-I/LC3B-II (autophagy), H1299; format: cell-based, Human; details: 72 h, increasing concentration
Experimental: as §2, with “antibody.” for “antibody. Images were acquired by Image Lab Software (Bio-Rad, Hercules, CA, USA), using a ChemiDoc System instrument (Bio-Rad).”
(§5) Figure 6 Analysis of autophagosome accumulation in M14 and H1299 cells after treatment with IS20 or IS21. […] Ratio of LC3B-II on LC3B-I levels, after normalization on HSP72/73, Actin or α-Tubulin, is quantified by densitometric analysis. (D) (Upper panels) Representative images and (lower panels) relative quantification of fluorescence microscopic analysis of LC3B puncta positive cells in M14 EGFP-LC3B and H1299 EGFP-LC3B transfected cells, treated with IS20 or IS21 (20 µM for 72h). […] Cells with more than 10 puncta were considered autophagy-positive. p-values were calculated between untreated (Ctrl) and treated cells, * p < 0.05.

H1299 NSCLC cells = assay: Cell viability by MTT, H1299; format: cell-based, Human; details: 20 µM for 72 h, vs control
Experimental: as §1
Figure 4 Analysis of the effect of IS20 and IS21 on cell viability, clonogenic ability and tumor sphere formation in cancer cells. […] (B) Representative images and quantification of clonogenic ability evaluated in M14 and H1299 cells treated with IS20 or IS21 (20 μM for 72 h). […] (C) Quantification of tumor sphere formation of M14 and H1299 cells treated with IS20 or IS21 (20 μM for 72 h). […] (A-C) Data are reported as mean ± SD of three independent experiments. p-values were calculated between control (Ctrl) and treated cells, ** p < 0.001 and *** p < 0.0001.

normal human fibroblasts = assay: Viability of normal fibroblasts; format: cell-based; details: data not shown
HCT116 cells = assay: Western blot of PARP1 cleavage, HCT116; format: cell-based, Human; details: 72 h
Experimental: as §2, §3

M14 cells [2] = assay: Western blot of LC3B-I/LC3B-II (autophagy), M14; format: cell-based, Human; details: 72 h
Experimental: as §4
as §5, with “IS21. Western blot analysis of LC3B-I and LC3B-II protein levels in (A) M14, and (B) H1299 cell lines untreated (Ctrl) or treated with IS20 or IS21 for 72 h at the indicated concentrations. (C) Western blot analysis of LC3B-I and LC3B-II levels in HL60 and U937 cell lines untreated (Ctrl) or treated with IS20 or IS21 (20 μM for 24 h). (A-C) Reported images are representative of two independent experiments with similar results. HSP72/73, Actin or α-Tubulin are shown as loading and transferring control.” for “IS21.”

| SMILES | IC50 (HL60 cells) [µM] | PARP1 cleavage, U937 (U937 cells) | PARP1 cleavage, M14 (M14 cells [1]) | ratio of LC3B-II on LC3B-I protein levels, H1299 (H1299 cells) | cell viability H1299 (H1299 NSCLC cells) | effect on normal human fibroblasts viability (normal human fibroblasts) | PARP1 cleavage, HCT116 (HCT116 cells) | ratio of LC3B-II on LC3B-I / LC3B-II protein level, M14 (M14 cells [2]) |
| --- | --- | --- | --- | --- | --- | --- | --- | --- |
| CCCCOc1ccc(C2/C(=C(\O)c3ccc4c(c3)CC(C)O4)C(=O)C(=O)N2c2nnc(SCc3ccc(Cl)cc3)s2)cc1OCC (stereo not shown) [IS20] | 10.9 to 34 | cleavage of PARP1 | cleavage of PARP1 | higher level | significant inhibition | no significant effect | not evident | higher level |
| CCCCCOc1ccc(C2/C(=C(\O)c3ccc4c(c3)CC(C)O4)C(=O)C(=O)N2c2nnc(SCc3ccc(Cl)cc3)s2)cc1OCC (stereo not shown) [IS21] | 10.9 to 34 | cleavage of PARP1 | cleavage of PARP1 | higher level | significant inhibition | no significant effect | not evident | higher level |
